Reference: patent publication US9422331B2, “2-oxo-2,3,4,5-tetrahydro-1 H-benzo[B]diazepines and their use in the treatment of cancer” (Hoffmann-La Roche Inc., priority 2012, dated 2016)
Where a name gives a salt, the structure may show the parent alone. Read-outs that look alike come from different tables or passages of the source.

Key:
BIR2 domain of XIAP = BIR2 domain of XIAP (Homo sapiens (Human), UniProt P98170, C202A/C213G); test: TR-FRET assay for BIR2: inhibition of binding of XIAP BIR2 domain to Peptide A (SMAC-derived peptide)
BIR3 domain of XIAP = BIR3 domain of XIAP (Homo sapiens (Human), UniProt P98170); test: TR-FRET assay for BIR3: inhibition of binding of XIAP BIR3 domain to Peptide A (SMAC-derived peptide)
[1] = 6x Histidine-tagged BIR2 domain (amino acids 124-240 of XIAP), 10 nM, 20 nM peptide AVPIAQKSEK-(ε-biotin)-OH, TR-FRET
[2] = 6x Histidine-tagged BIR3 domain (amino acids 241-356 of XIAP), 10 nM, 20 nM peptide AVPIAQKSEK-(ε-biotin)-OH, TR-FRET

Sequence of BIR3 domain of XIAP (P98170 241-356): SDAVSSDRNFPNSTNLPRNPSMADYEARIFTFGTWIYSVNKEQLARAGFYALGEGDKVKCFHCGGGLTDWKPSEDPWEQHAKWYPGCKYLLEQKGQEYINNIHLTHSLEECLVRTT
Sequence of BIR2 domain of XIAP (P98170 124-240 C202A/C213G): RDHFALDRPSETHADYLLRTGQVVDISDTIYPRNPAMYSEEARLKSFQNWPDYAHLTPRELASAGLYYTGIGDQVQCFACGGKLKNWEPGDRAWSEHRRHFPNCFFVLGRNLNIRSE

IC50 (BIR2 domain of XIAP; [1]) [nM]	IC50 (BIR3 domain of XIAP; [2]) [nM]	SMILES	IC50 (BIR2 domain of XIAP) [nM]	IC50 (BIR3 domain of XIAP) [nM]
–	–	CN[C@@H](C)C(=O)N[C@@H]1C(=O)N(Cc2c(C)cnc3ccccc23)c2ccccc2N(C(C)=O)[C@H]1C [Example 20, (S)-N-((2S,3S)-1-Acetyl-2-methyl-5-((3-methylquinolin-4-yl)methyl)-4-oxo-2,3,4,5-tetrahydro-1H-benzo[b][1,4]diazepin-3-yl)-2-(methylamino)propanamide dihydrochloride]	55	> 54800
–	–	CCN[C@@H](C)C(=O)N[C@@H]1C(=O)N(Cc2c(C)ccc3ccccc23)c2ccc(C#N)cc2N(C(=O)CS(C)(=O)=O)[C@H]1C [Example 28, (S)-N-((3S,4S)-7-Cyano-4-methyl-1-((2-methylnaphthalen-1-yl)methyl)-5-(2-(methylsulfonyl)acetyl)-2-oxo-2,3,4,5-tetrahydro-1H-benzo[b][1,4]diazepin-3-yl)-2-(ethylamino)propanamide hydrochloride]	75	> 54800
–	–	CN[C@@H](C)C(=O)N[C@@H]1C(=O)N(Cc2noc3cc(Br)ccc23)c2ccccc2N(C(=O)CS(C)(=O)=O)[C@H]1C [Example 41, (S)-N-((3S,4S)-1-((6-bromobenzo[d]isoxazol-3-yl)methyl)-4-methyl-5-(2-(methylsulfonyl)acetyl)-2-oxo-2,3,4,5-tetrahydro-1H-benzo[b][1,4]diazepin-3-yl)-2-(methylamino)propanamide 2,2,2-trifluoroacetate]	416	> 54800
–	–	CN[C@@H](C)C(=O)N[C@@H]1C(=O)N(Cc2cc(=O)oc3cc(Cl)ccc23)c2ccccc2N(C(=O)CS(C)(=O)=O)[C@H]1C [Example 40, (S)-N-((3S,4S)-1-((7-chloro-2-oxo-2H-chromen-4-yl)methyl)-4-methyl-5-(2-(methylsulfonyl)acetyl)-2-oxo-2,3,4,5-tetrahydro-1H-benzo[b][1,4]diazepin-3-yl)-2-(methylamino)propanamide 2,2,2-trifluoroacetate]	354	> 54800
–	–	CN[C@@H](C)C(=O)N[C@@H]1C(=O)N(Cc2nn(-c3ccccc3C#N)c3ccccc23)c2ccc(C#N)cc2N(C(=O)CS(C)(=O)=O)[C@H]1C [Example 53, (S)-N-((3S,4S)-7-cyano-1-((1-(2-cyanophenyl)-1H-indazol-3-yl)methyl)-4-methyl-5-(2-(methylsulfonyl)acetyl)-2-oxo-2,3,4,5-tetrahydro-1H-benzo[b][1,4]diazepin-3-yl)-2-(methylamino)propanamide 2,2,2-trifluoroacetate]	33	> 54800
12	> 54800	CN[C@@H](C)C(=O)N[C@@H]1C(=O)N(Cc2nn(-c3ccccc3C#N)c3ccccc23)c2ccccc2N(C(=O)c2ccc(C(C)=O)cc2)[C@H]1C [Example 3, (S)-N-{(2S,3S)-1-(4-acetyl-benzoyl)-5-[1-(2-cyano-phenyl)-1H-indazol-3-ylmethyl]-2-methyl-4-oxo-2,3,4,5-tetrahydro-1H-benzo[b][1,4]diazepin-3-yl}-2-methylamino-propionamide hydrochloride]	–	–
44	> 54800	CN[C@@H](C)C(=O)N[C@@H]1C(=O)N(Cc2nn(-c3ccccc3C#N)c3ccccc23)c2ccccc2N(C(C)=O)[C@H]1C [Example 19, (S)-N-((2S,3S)-1-Acetyl-5-((1-(2-cyanophenyl)-1H-indazol-3-yl)methyl)-2-methyl-4-oxo-2,3,4,5-tetrahydro-1H-benzo[b][1,4]diazepin-3-yl)-2-(methylamino)propanamide]	–	–
–	–	CN[C@@H](C)C(=O)N[C@@H]1C(=O)N(Cc2ccnc3ccccc23)c2ccccc2N(C(=O)CS(C)(=O)=O)[C@H]1C [Example 16, (S)-N-((2S,3S)-2-Methyl-1-(2-(methylsulfonyl)acetyl)-4-oxo-5-(quinolin-4-ylmethyl)-2,3,4,5-tetrahydro-1H-benzo[b][1,4]diazepin-3-yl)-2-(methylamino)propanamide hydrochloride]	179	> 54800
